How the values were obtained:
β1-AR = β1-AR (Homo sapiens, UniProt P08588); conditions: HEK293 cells stably expressing β1-AR; pretreatment 20 min with 30 nM; ISO 0.1 nM
Description: Experimental data with HEK293 cells stably expressing β1-AR and the cAMP biosensor Epac1-camps.

[1] = system: adult rat ventricular cardiomyocytes; assay: cell contractility assay, edge detection method (IonOptix); type: cell-based; conditions: atenolol 100 nM, 20 min; 1 Hz pacing; with and without 10 nM isoproterenol
Procedure: FIG. 7. Experimental data for cardiomyocyte hypertrophy (A) and cell contractility (B) assays performed with freshly isolated adult rat ventricular cardiomyocytes (CM) using atenolol coated nanoparticles (Atenolol NP) and control nanoparticles.
Freshly isolated adult rat ventricular CMs were incubated for 20 min with atenolol (100 nM), atenolol coated or control nanoparticles (both at 30 nM) and cell contractility was measured using edge detection method (IonOptix) at 1 Hz pacing frequency with and without stimulation with 10 nM isoproterenol.

Chain of β1-AR (P08588 whole entry): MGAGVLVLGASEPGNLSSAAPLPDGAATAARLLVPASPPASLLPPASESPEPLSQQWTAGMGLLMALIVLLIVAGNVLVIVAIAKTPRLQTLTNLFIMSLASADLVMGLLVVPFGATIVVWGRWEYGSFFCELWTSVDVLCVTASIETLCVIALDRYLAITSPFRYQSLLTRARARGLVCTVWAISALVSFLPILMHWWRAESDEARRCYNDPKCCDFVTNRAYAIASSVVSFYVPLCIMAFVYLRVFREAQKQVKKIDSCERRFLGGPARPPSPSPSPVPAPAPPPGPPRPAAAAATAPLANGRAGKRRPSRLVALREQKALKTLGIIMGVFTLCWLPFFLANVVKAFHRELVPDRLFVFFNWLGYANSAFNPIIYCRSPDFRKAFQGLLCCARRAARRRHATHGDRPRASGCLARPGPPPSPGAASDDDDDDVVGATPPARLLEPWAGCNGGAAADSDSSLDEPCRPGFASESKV

CC(C)NCC(O)COc1ccc(CC(N)=O)cc1 (centres unmarked) [atenolol]
inhibition of ISO-induced cAMP increase (CFP/YFP ratio) (β1-AR): efficacious in blocking β1-AR dependent cAMP synthesis | cell contractility [1]: decrease cell contractility
